Assay results taken from ChEMBL document CHEMBL4382216, “Asymmetric synthesis and biological evaluation of imidazole- and oxazole-containing synthetic lipoxin A4 mimetics (sLXms)” (Eur J Med Chem, 2019).

How the values were obtained:
Mus musculus [1] = assay: (§1) Anti-inflammatory activity in zymosan-induced C57BL/6J mouse peritonitis model assessed as total cell count in peritoneal cavity at 125 ng, ip pretreated for 30 mins followed by zymosan treatment and redosing of test compound at 1 hr post zymosan addition and measured at 24 hrs post zymosan addition by flow cytometry (reference value: 100%); type: functional
Mus musculus [2] = assay: Anti-inflammatory activity in zymosan-induced C57BL/6J mouse peritonitis model assessed as reduction in total cell count in peritoneal cavity at 125 ng, ip pretreated for 30 mins followed by zymosan treatment and redosing of test compound at 1 hr post zymosan addition and measured at 24 hrs post zymosan addition by flow cytometry relative to basal level (reference value: 14); type: functional
Mus musculus [3] = assay: as §1, with “PMN leukocytes level” for “total cell count”; type: functional
J774.1 [4] = assay: Anti-inflammatory activity in mouse J774.1 cells assessed as reduction in LPS-stimulated TNFalpha level at 100 nM preincubated for 1 hr followed by LPS stimulation for 24 hrs by ELISA relative to control; type: functional; parameters: scale not given: the % may be the effect or the level left
Homo sapiens = species on record: Homo sapiens; assay: Activation of Luc-fused NFkB (unknown origin) expressed in non-stimulated human THP1 cells assessed as relative luminescence unit at 10^-10 M after 24 hrs by luciferase reporter gene assay (reference value: 100%); type: cell-based
J774.1 [5] = assay: Anti-inflammatory activity in mouse J774.1 cells assessed as reduction in LPS-stimulated TNFalpha level at 10 nM preincubated for 1 hr followed by LPS stimulation for 24 hrs by ELISA relative to control; type: functional; parameters: scale not given: the % may be the effect or the level left

| SMILES | Emax (Mus musculus [1]) | fold change (FC) (Mus musculus [2]) | Emax (Mus musculus [3]) | Activity (J774.1 [4]) | Activity (Homo sapiens) | Activity (J774.1 [5]) |
| --- | --- | --- | --- | --- | --- | --- |
| CCCCC[C@H](O)/C=C/C=C\C=C\C=C\[C@@H](O)[C@@H](O)CCCC(=O)O [LIPOXIN A4] | 35.3% | 5 | 35.9% | – | – | – |
| CCCCC[C@H](O)c1nc(-c2ccccc2)n(-c2ccccc2)c1/C=C/[C@@H](O)[C@@H](O)CCCC(=O)OC | – | – | – | 41% | 1.7% | – |
| CCCCC[C@@H](O)c1nc(-c2ccccc2)n(-c2ccccc2)c1/C=C/[C@@H](O)[C@@H](O)CCCC(=O)OC | – | – | – | – | 1.5% | 30% |
